Experimental data published in patent publication US9499538B2, “Estrogen receptor modulators and uses thereof” (Seragon Pharmaceuticals, Inc., priority 2012, dated 2016).

How the values were obtained:
MCF-7 cells = test: Breast Cancer Cell Viability Assays (MCF-7, CellTiter-Glo); assay type: cell-based; conditions: 5 days' compound exposure; for IC50: Homo sapiens, MCF7, 120 h
Method in brief: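 Percent viability, background-subtracted against untreated wells, was taken from CellTiter-Glo luminescence after 5 days' exposure of MCF-7 cells. Compounds were tested at eleven semilog concentrations, final 0.3–0.000003 μM, in RPMI containing 10% FBS.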

ER-α in MCF-7 cells = molecular target: T1, ER-α in MCF-7 cells (Homo sapiens, UniProt P03372); test: Breast Cancer Cell ER-α In Cell Western Assay (SP1); assay type: cell-based; conditions: 4 or 24 hr post compound addition; for Emax: MCF7, SP1 antibody, read-out: ER-α In Cell Western Assay (SP1) Max Response; for DC50: SP1 antibody, read-out: ER-α In Cell Western Assay (SP1) IC50
T1 construct: endogenous in cells; host or cells: MCF-7
T1 sequence (P03372 1-595): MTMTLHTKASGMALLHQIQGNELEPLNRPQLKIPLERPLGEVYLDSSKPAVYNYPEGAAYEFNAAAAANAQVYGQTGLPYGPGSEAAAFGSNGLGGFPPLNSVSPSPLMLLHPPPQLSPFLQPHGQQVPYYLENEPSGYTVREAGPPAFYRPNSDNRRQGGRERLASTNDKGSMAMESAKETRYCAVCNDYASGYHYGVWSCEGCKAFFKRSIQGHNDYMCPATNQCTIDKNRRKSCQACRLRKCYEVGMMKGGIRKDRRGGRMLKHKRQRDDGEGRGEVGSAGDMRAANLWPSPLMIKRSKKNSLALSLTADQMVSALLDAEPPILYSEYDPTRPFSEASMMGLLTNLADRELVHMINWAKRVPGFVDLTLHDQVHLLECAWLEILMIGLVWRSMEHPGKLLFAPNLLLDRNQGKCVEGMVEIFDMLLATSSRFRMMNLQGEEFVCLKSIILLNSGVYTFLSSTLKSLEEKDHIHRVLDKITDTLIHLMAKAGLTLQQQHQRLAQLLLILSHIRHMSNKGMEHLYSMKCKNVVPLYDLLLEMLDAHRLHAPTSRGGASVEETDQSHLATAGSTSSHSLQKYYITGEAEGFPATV
Method in brief: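 ER-α levels quantified by in-cell western: SP1 signal normalised to DRAQ5 DNA stain, relative to untreated cells (% ER). Compounds at 0.3–0.000003 μM final, 11-point semilog series, 4 or 24 h exposure of MCF-7 cells grown in charcoal-stripped serum.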

IC50 (MCF-7 cells) | Emax (ER-α in MCF-7 cells) | DC50 (ER-α in MCF-7 cells) | SMILES | MCF7 Viability Assay Max Response (MCF-7 cells)
≤ 100 nM | ≥ 40% | ≤ 100 nM | O=C(O)/C=C/c1ccc(/C(=C(\c2cccc(N3CCCC3)c2)C2CCC2)c2ccc3[nH]nc(F)c3c2)cc1 [Example 87, (E)-3-(4-((E)-2-Cyclobutyl-1-(3-fluoro-1H-indazol-5-yl)-2-(3-(pyrrolidin-1-yl)phenyl)vinyl)phenyl)acrylic acid] | ++ (++ = a single % value ≧ 40%)
≤ 100 nM | ≥ 40% | ≤ 100 nM | N#Cc1cscc1/C(=C(\c1ccc(/C=C/C(=O)O)cc1)c1ccc2scnc2c1)C1CCC1 [Example 88, (E)-3-(4-((E)-1-(Benzo[d]thiazol-5-yl)-2-(4-cyanothiophen-3-yl)-2-cyclobutylvinyl)phenyl)acrylic acid] | ++ (++ = a single % value ≧ 40%)
≤ 100 nM | ≥ 40% | ≤ 100 nM | COc1nccc(/C(=C(\c2ccc(/C=C/C(=O)O)cc2)c2ccc3[nH]nc(F)c3c2)C2CCC2)c1C [Example 89, (E)-3-(4-((E)-2-Cyclobutyl-1-(3-fluoro-1H-indazol-5-yl)-2-(2-methoxy-3-methylpyridin-4-yl)vinyl)phenyl)acrylic acid] | ++ (++ = a single % value ≧ 40%)
≤ 100 nM | ≥ 40% | ≤ 100 nM | N#Cc1cc(F)ccc1/C(=C(\c1ccc(/C=C/C(=O)O)cc1)c1ccc2scnc2c1)C1CCC1 [Example 90, (E)-3-(4-((E)-1-(Benzo[d]thiazol-5-yl)-2-(2-cyano-4-fluorophenyl)-2-cyclobutylvinyl)phenyl)acrylic acid] | ++ (++ = a single % value ≧ 40%)
≤ 100 nM | ≥ 40% | ≤ 100 nM | COc1ccc(/C(=C(\c2ccc(/C=C/C(=O)O)cc2)c2ccc3scnc3c2)C2CCC2)cc1 [Example 91, (E)-3-(4-((E)-1-(Benzo[d]thiazol-5-yl)-2-cyclobutyl-2-(4-methoxyphenyl)vinyl)phenyl)acrylic acid] | ++ (++ = a single % value ≧ 40%)
≤ 100 nM | ≥ 40% | ≤ 100 nM | COc1cccc(/C(=C(\c2ccc(/C=C/C(=O)O)cc2)c2ccc3scnc3c2)C2CCC2)c1 [Example 92, (E)-3-(4-((E)-1-(Benzo[d]thiazol-5-yl)-2-cyclobutyl-2-(3-methoxyphenyl)vinyl)phenyl)acrylic acid] | ++ (++ = a single % value ≧ 40%)
≤ 100 nM | ≥ 40% | ≤ 100 nM | COc1ccc(/C(=C(\c2ccc(/C=C/C(=O)O)cc2)c2ccc3scnc3c2)C2CCC2)cn1 [Example 93, (E)-3-(4-((E)-1-(Benzo[d]thiazol-5-yl)-2-cyclobutyl-2-(6-methoxypyridin-3-yl)vinyl)phenyl)acrylic acid] | ++ (++ = a single % value ≧ 40%)
≤ 100 nM | ≥ 40% | ≤ 100 nM | O=C(O)/C=C/c1ccc(/C(=C(\c2ccccc2F)C2CCC2)c2ccc3scnc3c2)cc1 [Example 94, (E)-3-(4-((E)-1-(Benzo[d]thiazol-5-yl)-2-cyclobutyl-2-(2-fluorophenyl)vinyl)phenyl)acrylic acid] | ++ (++ = a single % value ≧ 40%)
≤ 100 nM | ≥ 40% | ≤ 100 nM | N#Cc1ccc(/C(=C(\c2ccc(/C=C/C(=O)O)cc2)c2ccc3scnc3c2)C2CCC2)c(F)c1 [Example 95, (E)-3-(4-((E)-1-(Benzo[d]thiazol-5-yl)-2-(4-cyano-2-fluorophenyl)-2-cyclobutylvinyl)phenyl)acrylic acid] | ++ (++ = a single % value ≧ 40%)
≤ 100 nM | ≥ 40% | ≤ 100 nM | Cc1cc(C#N)ccc1/C(=C(\c1ccc(/C=C/C(=O)O)cc1)c1ccc2scnc2c1)C1CCC1 [Example 96, (E)-3-(4-((E)-1-(Benzo[d]thiazol-5-yl)-2-(4-cyano-2-methylphenyl)-2-cyclobutylvinyl)phenyl)acrylic acid] | ++ (++ = a single % value ≧ 40%)
≤ 100 nM | ≥ 40% | ≤ 100 nM | COc1ccc(/C(=C(\c2ccc(/C=C/C(=O)O)cc2)c2ccc3scnc3c2)C2CCC2)c(C#N)c1 [Example 97, (E)-3-(4-((E)-1-(Benzo[d]thiazol-5-yl)-2-(2-cyano-4-methoxyphenyl)-2-cyclobutylvinyl)phenyl)acrylic acid] | ++ (++ = a single % value ≧ 40%)
≤ 100 nM | ≥ 40% | ≤ 100 nM | Cc1cccnc1/C(=C(\c1ccc(/C=C/C(=O)O)cc1)c1ccc2scnc2c1)C1CCC1 [Example 98, (E)-3-(4-((E)-1-(Benzo[d]thiazol-5-yl)-2-cyclobutyl-2-(3-methylpyridin-2-yl)vinyl)phenyl)acrylic acid] | ++ (++ = a single % value ≧ 40%)
≤ 100 nM | ≥ 40% | ≤ 100 nM | O=C(O)/C=C/c1ccc(/C(=C(\c2ncccc2F)C2CCC2)c2ccc3scnc3c2)cc1 [Example 99, (E)-3-(4-((E)-1-(Benzo[d]thiazol-5-yl)-2-cyclobutyl-2-(3-fluoropyridin-2-yl)vinyl)phenyl)acrylic acid] | ++ (++ = a single % value ≧ 40%)
≤ 100 nM | ≥ 40% | ≤ 100 nM | O=C(O)/C=C/c1ccc(/C(=C(\c2ncccc2Cl)C2CCC2)c2ccc3scnc3c2)cc1 [Example 100, (E)-3-(4-((E)-1-(Benzo[d]thiazol-5-yl)-2-(3-chloropyridin-2-yl)-2-cyclobutylvinyl)phenyl)acrylic acid] | ++ (++ = a single % value ≧ 40%)
≤ 100 nM | ≥ 40% | ≤ 100 nM | CC/C(=C(/c1ccc(/C=C/C(=O)O)cc1)c1ccc2[nH]nc(F)c2c1)c1ccc(Cl)cc1C#N [Example 101, (E)-3-(4-((E)-2-(4-Chloro-2-cyanophenyl)-1-(3-fluoro-1H-indazol-5-yl)but-1-en-1-yl)phenyl)acrylic acid] | ++ (++ = a single % value ≧ 40%)
≤ 100 nM | ≥ 40% | ≤ 100 nM | CC/C(=C(/c1ccc(/C=C/C(=O)O)cc1)c1ccc2[nH]nc(F)c2c1)c1ccc(F)cc1C#N [Example 102, (E)-3-(4-((E)-2-(2-Cyano-4-fluorophenyl)-1-(3-fluoro-1H-indazol-5-yl)but-1-en-1-yl)phenyl)acrylic acid] | ++ (++ = a single % value ≧ 40%)
≤ 100 nM | ≥ 40% | ≤ 100 nM | CC/C(=C(/c1ccc(/C=C/C(=O)O)cc1)c1ccc2[nH]nc(F)c2c1)c1ccc(C(F)(F)F)cc1C#N [Example 103] | ++ (++ = a single % value ≧ 40%)
≤ 100 nM | ≥ 40% | ≤ 100 nM | CC/C(=C(/c1ccc(/C=C/C(=O)O)cc1)c1ccc2[nH]nc(F)c2c1)c1ccc(C#N)cc1F [Example 104, (E)-3-(4-((E)-2-(4-Cyano-2-fluorophenyl)-1-(3-fluoro-1H-indazol-5-yl)but-1-en-1-yl)phenyl)acrylic acid] | ++ (++ = a single % value ≧ 40%)
